Assay results published in article PMC7746546, “The JAK1 Selective Inhibitor ABT 317 Blocks Signaling Through Interferon-γ and Common γ Chain Cytokine Receptors to Reverse Autoimmune Diabetes in NOD Mice” (Frontiers in Immunology, 2020).

How the values were obtained:
[1] = system: IL-21 signaling in T cells; test: IL-21-induced pSTAT3 in spleen T cells in vitro (flow cytometry); assay type: cell-based, mouse; details: 0.05, 0.2, 1 and 2 µM, CD8+ and CD4+ T cells, Fig S2K-L
Method: […] […] For use in vivo, 3 mg/kg or 10 mg/kg of drug was delivered twice daily by oral gavage in the vehicle 0.5% hydroxypropyl methylcellulose in sterile H2O. The JAK1/JAK2 inhibitor baricitinib was purchased from SelleckChem and used at a concentration of 3 mg/kg in vivo made up in a vehicle of 0.5% methyl cellulose.
Single-cell suspensions from the spleens were prepared by mechanical tissue disruption through a 70 μm cell strainer followed by red cell lysis. Cells were resuspended in FACS buffer (0.5% FCS in PBS) and filtered through a nylon mesh.
Whole islets were treated with vehicle or ABT 317 for 1 h before culture with 10 ng/ml IFN-γ for 72 h, and analysis by flow cytometry. Splenocytes and whole blood were stimulated with 100 U/ml IL-2, 50 ng/ml IL-7, 30 ng/ml IL-15, 25 ng/ml IL-21, or 40 ng/ml GM-CSF for 30 min at 37°C. Red blood cells were lysed (155 mmol/L NH4Cl, 10 mmol/L Tris-HCl, pH 7.5). Leukocytes were analyzed by flow cytometry.
Mouse islet cells were stained with anti-CD45 and biotinylated anti-H2Kd (BD Pharmingen) followed by streptavidin-allophycocyanin (BioLegend). β‐cells were identified by autofluorescence ([23]). Dead cells were excluded using propidium iodide. […] Data were collected on the FACS Fortessa cell analyzer (BD Bioscience, San Jose, CA, USA) and were analyzed using FlowJo Software version 10 (TreeStar, Inc, Ashland, OR, USA).

[2] = cited from earlier work
[3] = design: method as in PMID 29481660; details: participants with diabetic kidney disease, phase 2 trial; cited from earlier work
[4] = system: autoimmune insulitis in NOD mice; design: method as in PMID 28292965; details: cited from earlier work
[5] = system: IFN-γ mediated MHC class I upregulation on β cells; design: method as in PMID 28292965; details: cited from earlier work
[6] = system: JAK1 over JAK3; design: method as in PMID 30806706, PMID 27390150; details: cited from earlier work
[7] = system: JAK2-dependent cytokines IL-3 and GM-CSF; details: cited from earlier work
[8] = system: JAK1 over JAK2; design: method as in PMID 30806706, PMID 27390150; details: cited from earlier work

CCS(=O)(=O)N1CC(CC#N)(n2cc(-c3ncnc4[nH]ccc34)cn2)C1 [baricitinib]
blocking IL-21 signaling through pSTAT3, dose dependence [1]: similar | neutropenia in clinical trials [2]: neutropenia has been found | albuminuria [3]: reduction

C[C@@H]1CCN(C(=O)CC#N)C[C@@H]1N(C)c1ncnc2[nH]ccc12 [tofacitinib]
blocking IL-21 signaling through pSTAT3, dose dependence [1]: similar

Cc1cc(Nc2nc(N[C@@H](C)c3ncc(F)cn3)ncc2Cl)n[nH]1 [AZD1480]
established autoimmune insulitis [4]: reversed | immune cell infiltration into pancreatic islets [4]: reduced | IFN-γ mediated MHC class I upregulation on β cells [5]: blocked

O=C(Nc1nc2cccc(-c3ccc(CN4CCS(=O)(=O)CC4)cc3)n2n1)C1CC1 [filgotinib]
anemia ([2]; rheumatoid arthritis patients): did not result in anemia

CC[C@@H]1CN(C(=O)NCC(F)(F)F)C[C@@H]1c1cnc2cnc3[nH]ccc3n12 [upadacitinib]
selectivity for JAK1 over JAK3 [6]: 58 fold | effect on JAK2-dependent cytokines IL-3 and GM-CSF [7]: inhibits | selectivity for JAK1 over JAK2 [8]: 74 fold
